Measurements from patent publication US20060078598A1, “Animal feed containing an encapsulated ingredient” (CAN Technologies, Inc., priority 2002, published 2006).
Where two headings read alike, the source gives them in different places.

Columns and labels:
[1] = feed formula with circa 1.0 wt. % sample, contacted with deionized water
Text: Equal levels of each sample (circa 1.0 wt. % based on total feed weight) were introduced into a feed formula that was placed in a vessel and contacted with deionized water.

[2] = deionized water
Text: Equal levels of each sample (circa 1.0 wt. % of methionine based on total feed weight) were introduced into a feed formula that was placed in a vessel and exposed to deionized water for an hour.

LEACHING LOSS AFTER 30 MINUTES [1]: 40%
percent loss of methionine ([2]; after about 1 minute): about 15 wt. %
percent loss of methionine ([2]; after about 5 minutes): about 22 wt. %
percent loss of methionine ([2]; after about 15 minutes): about 30 wt. %
percent loss of methionine ([2]; after about 60 minutes): about 43 wt. %
Compound: CSCC[C@H](N)C(=O)O [Uncoated methionine, methionine]
